Measured values published in patent publication US8178658B2 (Dow AgroSciences, LLC, priority 2008, dated 2012).

Columns and labels:
[1] = system: beet armyworm (BAW; Spodoptera exigua: Lepidoptera); assay: 96-well microtiter plate-based high throughput (HTS) diet bioassay on beet armyworm (BAW HTS); format: in vivo; details: BAW eggs, 12 μg test compound per well, mortality at 6 d post-treatment, mortality class
Method: (§1) Bioassays on beet armyworm (BAW; Spodoptera exigua: Lepidoptera) were conducted using either a 96-well microtiter plate-based high throughput (HTS) bioassay or a 128-well diet tray assay. The HTS assay is a based on a modification of Lewer et al. J. Nat. Prod. 2006, 69, 1506. BAW eggs of were placed on top of artificial diet (100 μl) in each well of 96-well microtiter plate. The diet was pretreated with test compounds (12 μg dissolved in 30 μL of DMSO-acetone-water mixture) layered on top of the diet using a liquid handling system and then allowed to dry for several hours. Infested plates were then covered with a layer of sterile cotton batting and the plate lid, and then held in the dark at 29° C. Mortality was recoded at 6 d post-treatment. Each plate had six replicates. The percent mortality was calculated from the average of the six replicates. In the case of the 128-well diet assay, three to five second instar BAW larvae were placed in each well (3 mL) of the diet tray that had been previously filled with 1 mL of artificial diet to which 50 μg/cm^2 of the test compound (dissolved in 50 μL of 90:10 acetone-water mixture) had been applied (to each of eight wells) and then allowed to dry. Trays were covered with a clear self-adhesive cover, and held at 25° C., 14:10 light-dark for six days. Percent mortality was recorded for the larvae in each well; activity in the eight wells was then averaged. In Table 7, under the BAW HTS or BAW 50 heading, an “A” means that the compound was tested and at least 50 percent mortality was observed whereas, “B” means that either (1) the compound was tested and less than 50 percent mortality was observed or (2) the compound was not tested.

[2] = system: beet armyworm (BAW; Spodoptera exigua: Lepidoptera); assay: 128-well diet tray assay on beet armyworm (BAW 50); format: in vivo; details: 128-well diet tray assay; 50 μg/cm^2 of test compound on diet; second instar BAW larvae; mortality class
Method: as §1

[3] = 96-well microtiter plate HTS diet assay

| SMILES | BAW HTS ([1]; 96-well HTS diet bioassay) | BAW HTS [1, 3] | BAW 50 ug/cm2 [2] |
| --- | --- | --- | --- |
| COC1C(C)OC(ON=Cc2ccc(-c3cn(-c4nc(F)c(F)c(F)c4F)cn3)cc2)C(OC)C1OC (stereo not drawn) [Compound 38] | B (either (1) the compound was tested and less than 50 percent mortality was observed or (2) the compound was not tested) | B (either (1) the compound was tested and less than 50 percent mortality was observed or (2) the compound was not tested) | A (the compound was tested and at least 50 percent mortality was observed) |
| COC1C(C)OC(ON=Cc2ccc(-c3cn(-c4ccc(I)cn4)cn3)cc2)C(OC)C1OC (stereo not drawn) [Compound 39] | B (either (1) the compound was tested and less than 50 percent mortality was observed or (2) the compound was not tested) | B (either (1) the compound was tested and less than 50 percent mortality was observed or (2) the compound was not tested) | A (the compound was tested and at least 50 percent mortality was observed) |
| COc1ccc(C=NOC2OC(C)C(OC)C(OC)C2OC)cc1-c1cn(-c2ccc(C(F)(F)F)cc2)cn1 (stereo not drawn) [Compound 40] | B (either (1) the compound was tested and less than 50 percent mortality was observed or (2) the compound was not tested) | B (either (1) the compound was tested and less than 50 percent mortality was observed or (2) the compound was not tested) | A (the compound was tested and at least 50 percent mortality was observed) |
| COC1C(C)OC(ON=Cc2ccc(-c3cn(-c4ccc(C)cc4)cn3)cc2)C(OC)C1OC (stereo not drawn) [Compound 41] | B (either (1) the compound was tested and less than 50 percent mortality was observed or (2) the compound was not tested) | B (either (1) the compound was tested and less than 50 percent mortality was observed or (2) the compound was not tested) | A (the compound was tested and at least 50 percent mortality was observed) |
| COC1C(C)OC(ON=Cc2ccc(-c3cn(-c4ccc(C(F)(F)F)cc4)cn3)cc2)C(OC)C1OC (stereo not drawn) [Compound 42] | B (either (1) the compound was tested and less than 50 percent mortality was observed or (2) the compound was not tested) | B (either (1) the compound was tested and less than 50 percent mortality was observed or (2) the compound was not tested) | A (the compound was tested and at least 50 percent mortality was observed) |
| COC1C(C)OC(ON=Cc2ccc(-c3cn(-c4ccc(Cl)cc4)cn3)cc2)C(OC)C1OC (stereo not drawn) [Compound 43] | B (either (1) the compound was tested and less than 50 percent mortality was observed or (2) the compound was not tested) | B (either (1) the compound was tested and less than 50 percent mortality was observed or (2) the compound was not tested) | A (the compound was tested and at least 50 percent mortality was observed) |
| COc1ccc(-n2cnc(-c3ccc(C=NOC4OC(C)C(OC)C(OC)C4OC)cc3)c2)cc1 (stereo not drawn) [Compound 44] | B (either (1) the compound was tested and less than 50 percent mortality was observed or (2) the compound was not tested) | B (either (1) the compound was tested and less than 50 percent mortality was observed or (2) the compound was not tested) | A (the compound was tested and at least 50 percent mortality was observed) |
| COC1C(C)OC(ON=Cc2ccc(-c3cn(-c4ccc(Br)cc4)cn3)cc2)C(OC)C1OC (stereo not drawn) [Compound 45] | B (either (1) the compound was tested and less than 50 percent mortality was observed or (2) the compound was not tested) | B (either (1) the compound was tested and less than 50 percent mortality was observed or (2) the compound was not tested) | A (the compound was tested and at least 50 percent mortality was observed) |
| COC1C(C)OC(ON=Cc2ccc(-c3cn(-c4ccc(C(C)C)cc4)cn3)cc2)C(OC)C1OC (stereo not drawn) [Compound 46] | B (either (1) the compound was tested and less than 50 percent mortality was observed or (2) the compound was not tested) | B (either (1) the compound was tested and less than 50 percent mortality was observed or (2) the compound was not tested) | A (the compound was tested and at least 50 percent mortality was observed) |
| COC1C(C)OC(ON=Cc2ccc(-c3cn(-c4ccc(I)cc4)cn3)cc2)C(OC)C1OC (stereo not drawn) [Compound 47] | B (either (1) the compound was tested and less than 50 percent mortality was observed or (2) the compound was not tested) | B (either (1) the compound was tested and less than 50 percent mortality was observed or (2) the compound was not tested) | A (the compound was tested and at least 50 percent mortality was observed) |
| COC1C(C)OC(ON=Cc2ccc(-c3cn(-c4ccc(C(C)(C)C)cc4)cn3)cc2)C(OC)C1OC (stereo not drawn) [Compound 48] | B (either (1) the compound was tested and less than 50 percent mortality was observed or (2) the compound was not tested) | B (either (1) the compound was tested and less than 50 percent mortality was observed or (2) the compound was not tested) | A (the compound was tested and at least 50 percent mortality was observed) |
| COC1C(C)OC(ON=Cc2ccc(-c3cn(-c4ccc(OC(F)(F)F)cc4)cn3)c(F)c2F)C(OC)C1OC (stereo not drawn) [Compound 49] | B (either (1) the compound was tested and less than 50 percent mortality was observed or (2) the compound was not tested) | B (either (1) the compound was tested and less than 50 percent mortality was observed or (2) the compound was not tested) | A (the compound was tested and at least 50 percent mortality was observed) |
| COC1C(C)OC(ON=Cc2ccc(Cl)c(-c3cn(-c4ccc(OC(F)(F)F)cc4)cn3)c2)C(OC)C1OC (stereo not drawn) [Compound 50] | A (the compound was tested and at least 50 percent mortality was observed) | A (the compound was tested and at least 50 percent mortality was observed) | A (the compound was tested and at least 50 percent mortality was observed) |
| CO[C@@H]1[C@@H](OC)[C@H](C)O[C@@H](O/N=C/c2ccc(-c3cn(-c4ccc(OC(F)(F)C(F)(F)F)cc4)cn3)cc2)[C@@H]1OC [Compound 51] | B (either (1) the compound was tested and less than 50 percent mortality was observed or (2) the compound was not tested) | B (either (1) the compound was tested and less than 50 percent mortality was observed or (2) the compound was not tested) | A (the compound was tested and at least 50 percent mortality was observed) |
| CCOC1C(C)OC(ON=Cc2ccc(-c3cn(-c4ccc(OC(F)(F)C(F)(F)F)cc4)cn3)cc2)C(OCC)C1OCC (stereo not drawn) [Compound 52] | B (either (1) the compound was tested and less than 50 percent mortality was observed or (2) the compound was not tested) | B (either (1) the compound was tested and less than 50 percent mortality was observed or (2) the compound was not tested) | A (the compound was tested and at least 50 percent mortality was observed) |
| CCOC(=O)C1C(c2ccc(/C=N/O[C@@H]3O[C@@H](C)[C@H](OC)[C@@H](OC)[C@H]3OC)cc2)=NN(c2ccc(OC(F)(F)F)cc2)C1C(=O)OCC (stereo partly drawn) [Compound 53] | A (the compound was tested and at least 50 percent mortality was observed) | A (the compound was tested and at least 50 percent mortality was observed) | A (the compound was tested and at least 50 percent mortality was observed) |
| COC(=O)C1CC(c2ccc(/C=N/O[C@@H]3O[C@@H](C)[C@H](OC)[C@@H](OC)[C@H]3OC)cc2)=NN1c1ccc(OC(F)(F)F)cc1 (stereo partly drawn) [Compound 54] | A (the compound was tested and at least 50 percent mortality was observed) | A (the compound was tested and at least 50 percent mortality was observed) | A (the compound was tested and at least 50 percent mortality was observed) |
| CCCC1C(c2ccc(/C=N/O[C@@H]3O[C@@H](C)[C@H](OC)[C@@H](OC)[C@H]3OC)cc2)=NN(c2ccc(OC(F)(F)F)cc2)C1C(=O)OCC (stereo partly drawn) [Compound 55] | A (the compound was tested and at least 50 percent mortality was observed) | A (the compound was tested and at least 50 percent mortality was observed) | A (the compound was tested and at least 50 percent mortality was observed) |
| CCOC(=O)C1C(C)C(c2ccc(/C=N/O[C@@H]3O[C@@H](C)[C@H](OC)[C@@H](OC)[C@H]3OC)cc2)=NN1c1ccc(OC(F)(F)F)cc1 (stereo partly drawn) [Compound 56] | A (the compound was tested and at least 50 percent mortality was observed) | A (the compound was tested and at least 50 percent mortality was observed) | A (the compound was tested and at least 50 percent mortality was observed) |
